How the values were obtained:
CDK6/CycD1 = target: T1, CDK6/CycD1 (Homo sapiens, UniProt Q00534); test: In vitro kinase inhibition assay, CDK6/CycD1; type: biochemical
T1 construct: host or cells: Sf9 insect cells, baculovirus
Method: In vitro kinase inhibition assays may be performed according to the following protocol:
Compounds are used as 1×10^−02 M stock solutions in 100% DMSO, 100 μl each in column 2 of three 96-well V-shaped microtiter plates (in the following, said plates are referred to as “master plates”).
Subsequently, the 1×10^−02 M stock solutions in column 2 of the master plates are subjected to a serial, semi-logarithmic dilution using 100% DMSO as a solvent, resulting in 10 different concentrations, the dilution endpoint being 3×10^−07 M/100% DMSO in column 12. Column 1 and 7 are filled with 100% DMSO as controls. […]
For the determination of inhibitory profiles, the following protein kinases were used: CDK2/CycA, CDK4/CycD1, CDK6/CycD1 and CDK9/CycT. […] The purity of each kinase is determined by SDS-PAGE/silver staining and the identity of each kinase is verified by western blot analysis with kinase specific antibodies or by mass spectroscopy. […]
Reaction mixtures are incubated at 30° C. for 80 minutes. […] Incorporation of ^33P is determined with a microplate scintillation counter (Microbeta, Wallac). […]
The median value of the counts in column 1 (n=8) of each assay plate is defined as “low control”. This value reflects unspecific binding of radioactivity to the plate in the absence of a protein kinase but in the presence of the substrate. […]

CDK7/CycH/MAT1 = target: T2, CDK7/CycH/MAT1 (Homo sapiens, UniProt P50613); test: In vitro kinase inhibition assay, CDK7/CycH/MAT1; type: biochemical
T2 construct: made in house; host or cells: Sf9 insect cells, baculovirus
T2 sequence (P50613 whole entry): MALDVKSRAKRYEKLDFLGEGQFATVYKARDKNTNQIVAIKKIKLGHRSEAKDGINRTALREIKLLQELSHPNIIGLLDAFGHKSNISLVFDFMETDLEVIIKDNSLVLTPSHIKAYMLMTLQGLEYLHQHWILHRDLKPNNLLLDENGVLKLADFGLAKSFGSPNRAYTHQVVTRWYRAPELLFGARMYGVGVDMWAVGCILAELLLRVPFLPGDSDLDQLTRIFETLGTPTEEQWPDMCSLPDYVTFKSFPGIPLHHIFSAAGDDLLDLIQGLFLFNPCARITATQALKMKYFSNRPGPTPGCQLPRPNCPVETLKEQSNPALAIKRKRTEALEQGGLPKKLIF
T2 sequence (P51946 whole entry partner): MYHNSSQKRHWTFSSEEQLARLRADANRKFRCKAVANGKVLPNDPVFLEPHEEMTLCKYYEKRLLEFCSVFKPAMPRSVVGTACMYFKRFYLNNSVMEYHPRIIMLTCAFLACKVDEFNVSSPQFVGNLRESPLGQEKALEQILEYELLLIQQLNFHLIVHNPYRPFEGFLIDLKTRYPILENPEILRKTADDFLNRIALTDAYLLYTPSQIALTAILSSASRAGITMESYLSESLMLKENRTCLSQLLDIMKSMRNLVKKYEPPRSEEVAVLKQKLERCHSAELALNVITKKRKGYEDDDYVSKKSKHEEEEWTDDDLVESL
T2 sequence (P51948 whole entry partner): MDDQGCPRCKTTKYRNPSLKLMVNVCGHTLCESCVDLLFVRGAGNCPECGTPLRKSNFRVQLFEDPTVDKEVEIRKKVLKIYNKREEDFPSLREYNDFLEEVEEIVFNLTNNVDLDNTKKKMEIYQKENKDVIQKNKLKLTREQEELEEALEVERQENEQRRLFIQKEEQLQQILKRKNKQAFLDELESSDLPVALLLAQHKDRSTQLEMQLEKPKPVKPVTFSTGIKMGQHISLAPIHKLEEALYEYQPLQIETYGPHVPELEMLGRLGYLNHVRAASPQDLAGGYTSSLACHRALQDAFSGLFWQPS

T1 sequence (Q00534 whole entry): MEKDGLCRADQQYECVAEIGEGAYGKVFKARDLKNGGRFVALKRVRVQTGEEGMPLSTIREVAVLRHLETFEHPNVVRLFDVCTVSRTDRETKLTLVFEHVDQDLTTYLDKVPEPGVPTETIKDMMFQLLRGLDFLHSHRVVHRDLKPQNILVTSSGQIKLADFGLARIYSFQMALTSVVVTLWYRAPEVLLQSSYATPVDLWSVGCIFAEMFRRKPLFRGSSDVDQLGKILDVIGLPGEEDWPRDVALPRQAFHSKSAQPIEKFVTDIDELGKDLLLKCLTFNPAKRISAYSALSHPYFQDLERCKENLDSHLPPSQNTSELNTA
T1 sequence (P24385 whole entry partner): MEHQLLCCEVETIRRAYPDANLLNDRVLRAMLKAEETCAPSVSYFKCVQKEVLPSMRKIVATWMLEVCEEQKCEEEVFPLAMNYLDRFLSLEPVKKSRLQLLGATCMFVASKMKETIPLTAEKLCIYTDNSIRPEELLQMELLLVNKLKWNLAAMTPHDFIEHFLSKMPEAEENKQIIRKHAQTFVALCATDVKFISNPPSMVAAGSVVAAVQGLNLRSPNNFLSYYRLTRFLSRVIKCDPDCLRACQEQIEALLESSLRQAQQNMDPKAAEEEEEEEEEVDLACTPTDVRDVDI

COc1ccccc1-c1cc(Nc2cccc(S(N)(=O)=O)c2)ncn1 [Compound A] was tested. Which IC50 (CDK6/CycD1) did it give?
The IC50 was 1.91 µM.

What about the IC50 (CDK7/CycH/MAT1) of the same compound?
The IC50 was 10 µM.

Reference: US20090221581A1, “Methods of treating pain” (priority 2005, published 2009)
